Assay results published in US4385062A, “1-[(-2-Mercaptocycloalkyl)carbonyl]-L-proline derivatives, the process for their manufacture, the intermediates for their synthesis and their use as anti-hypertensive agents” (Gruppo Lepetit S.p.A., priority 1980, dated 1983).

How the values were obtained:
[1] = target: T1, angiotensin converting enzyme (Rattus norvegicus, UniProt P47820); experiment: in vitro radioimmunoassay of angiotensin-II generation in rat plasma (converting enzyme inhibition); type: biochemical; settings: 37° C., 30 minutes, angiotensin-II antibody trapping, read-out: IC50 (concentration at which a 50% inhibition of formation of angiotensin-II with respect to the control occurs) (converted)
T1 construct: rat plasma containing angiotensinogen, renin and converting enzyme in physiological amounts; from tissue; host or cells: rat plasma
T1 sequence (P47820 36-1238 limits assumed): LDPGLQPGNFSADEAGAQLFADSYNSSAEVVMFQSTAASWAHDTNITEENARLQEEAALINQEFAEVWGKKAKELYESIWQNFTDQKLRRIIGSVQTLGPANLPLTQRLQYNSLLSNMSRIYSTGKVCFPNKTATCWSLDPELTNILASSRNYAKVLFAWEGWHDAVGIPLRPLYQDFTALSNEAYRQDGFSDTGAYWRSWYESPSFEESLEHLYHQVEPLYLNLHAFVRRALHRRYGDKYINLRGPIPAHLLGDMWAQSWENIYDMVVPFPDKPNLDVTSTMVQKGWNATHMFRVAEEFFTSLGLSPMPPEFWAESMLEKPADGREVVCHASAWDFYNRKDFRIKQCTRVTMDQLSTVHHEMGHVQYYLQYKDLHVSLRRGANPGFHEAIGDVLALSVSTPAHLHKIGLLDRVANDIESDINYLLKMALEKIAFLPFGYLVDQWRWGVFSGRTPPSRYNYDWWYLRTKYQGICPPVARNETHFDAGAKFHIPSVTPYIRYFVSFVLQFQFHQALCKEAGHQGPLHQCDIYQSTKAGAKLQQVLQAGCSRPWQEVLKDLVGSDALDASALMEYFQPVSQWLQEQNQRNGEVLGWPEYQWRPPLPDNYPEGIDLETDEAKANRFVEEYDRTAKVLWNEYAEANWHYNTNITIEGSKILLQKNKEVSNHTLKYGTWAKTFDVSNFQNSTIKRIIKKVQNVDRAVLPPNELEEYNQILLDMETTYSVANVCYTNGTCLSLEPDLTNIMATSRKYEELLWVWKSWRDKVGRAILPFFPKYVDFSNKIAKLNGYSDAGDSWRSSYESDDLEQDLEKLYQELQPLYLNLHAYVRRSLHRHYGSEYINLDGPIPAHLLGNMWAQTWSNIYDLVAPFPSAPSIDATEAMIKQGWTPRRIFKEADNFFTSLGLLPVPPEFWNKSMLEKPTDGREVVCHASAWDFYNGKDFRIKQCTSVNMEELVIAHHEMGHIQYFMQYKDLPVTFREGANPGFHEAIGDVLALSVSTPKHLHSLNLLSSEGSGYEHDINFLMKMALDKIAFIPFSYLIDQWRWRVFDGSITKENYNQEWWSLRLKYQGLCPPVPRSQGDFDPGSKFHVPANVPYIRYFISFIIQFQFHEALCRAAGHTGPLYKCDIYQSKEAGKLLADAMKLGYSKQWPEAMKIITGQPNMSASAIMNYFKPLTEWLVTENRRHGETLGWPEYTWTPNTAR
Experimental: The in vitro activity was determined by a radioimmuno-assay carried out using the methodology illustrated by K. Poulsen in J. Lab. […] More particularly, the in vitro activity was quantitatively evaluated by following the procedure described below:
50 μl of rat plasma containing angiotensinogen, renin and converting enzyme in physiological amounts, but deprived of endogenous angiotensin-I and angiotensin-II, and 10 μl of angiotensin-II antibody in dilution (1:120) were incubated in a tube at 37° C. for 30 minutes.
During this enzymatic incubation in the absence of converting enzyme inhibitors, angiotensin-II which forms is then transformed into angiotensin-II by the action of converting enzyme and the angiotensin-II antibody which is present in the incubate, then captures and traps it, thus preserving angiotensin-II from the degrading action of plasmatic angiotensinases. Incubation was terminated by placing the tube at 0° C. and the amount of angiotensin-II formed and captured by the antibody was measured by radioimmunoassay (see K. Poulsen and J. Jorgensen J. Clin. Endocrinol. Metab. 39, 816-825 (1974). […]
As said above, the amount of captured angiotensin-II, was determined by a radioimmunological assay. […] After centrifugation at 3000×g for 30 minutes the supernatant which contains the antibody-bound angiotensin-II, was decanted in counting tubes and each sample was then counted.
For calculation of generated angiotensin-II from the amount of antibody-bound labeled angiotensin-II, an angiotensin-II standard curve was constructed using 50 μg of standard angiotensin-II (containing zero to 7.5 pg of angiotensin-II) and 10 μl of angiotensin-II antibody in dilution (1:120). […] By plotting the amounts of antibody-bound labeled angiotensin-II versus the known amounts of angiotensin-II initially present, a standard curve can be constructed, which allow a direct correlation between the amount of antibody-bound labeled angiotensin-II determined in each test and the amount of generated angiotensin-II.

[2] = target: T2, angiotensin converting enzyme (Rattus norvegicus, UniProt P47820); experiment: inhibition of the pressure increase induced by angiotensin-I in anesthetized normotensive rats; type: in vivo; settings: normotensive rats anesthetized with nembuthal, angiotensin-I 0.1 μg/Kg, generally 15 minutes after test compound
T2 construct: confirmed also in vivo by means of an experiment performed on normotensive rats; from tissue; host or cells: anesthetized normotensive rats (whole animal)
T2 sequence (P47820 36-1313): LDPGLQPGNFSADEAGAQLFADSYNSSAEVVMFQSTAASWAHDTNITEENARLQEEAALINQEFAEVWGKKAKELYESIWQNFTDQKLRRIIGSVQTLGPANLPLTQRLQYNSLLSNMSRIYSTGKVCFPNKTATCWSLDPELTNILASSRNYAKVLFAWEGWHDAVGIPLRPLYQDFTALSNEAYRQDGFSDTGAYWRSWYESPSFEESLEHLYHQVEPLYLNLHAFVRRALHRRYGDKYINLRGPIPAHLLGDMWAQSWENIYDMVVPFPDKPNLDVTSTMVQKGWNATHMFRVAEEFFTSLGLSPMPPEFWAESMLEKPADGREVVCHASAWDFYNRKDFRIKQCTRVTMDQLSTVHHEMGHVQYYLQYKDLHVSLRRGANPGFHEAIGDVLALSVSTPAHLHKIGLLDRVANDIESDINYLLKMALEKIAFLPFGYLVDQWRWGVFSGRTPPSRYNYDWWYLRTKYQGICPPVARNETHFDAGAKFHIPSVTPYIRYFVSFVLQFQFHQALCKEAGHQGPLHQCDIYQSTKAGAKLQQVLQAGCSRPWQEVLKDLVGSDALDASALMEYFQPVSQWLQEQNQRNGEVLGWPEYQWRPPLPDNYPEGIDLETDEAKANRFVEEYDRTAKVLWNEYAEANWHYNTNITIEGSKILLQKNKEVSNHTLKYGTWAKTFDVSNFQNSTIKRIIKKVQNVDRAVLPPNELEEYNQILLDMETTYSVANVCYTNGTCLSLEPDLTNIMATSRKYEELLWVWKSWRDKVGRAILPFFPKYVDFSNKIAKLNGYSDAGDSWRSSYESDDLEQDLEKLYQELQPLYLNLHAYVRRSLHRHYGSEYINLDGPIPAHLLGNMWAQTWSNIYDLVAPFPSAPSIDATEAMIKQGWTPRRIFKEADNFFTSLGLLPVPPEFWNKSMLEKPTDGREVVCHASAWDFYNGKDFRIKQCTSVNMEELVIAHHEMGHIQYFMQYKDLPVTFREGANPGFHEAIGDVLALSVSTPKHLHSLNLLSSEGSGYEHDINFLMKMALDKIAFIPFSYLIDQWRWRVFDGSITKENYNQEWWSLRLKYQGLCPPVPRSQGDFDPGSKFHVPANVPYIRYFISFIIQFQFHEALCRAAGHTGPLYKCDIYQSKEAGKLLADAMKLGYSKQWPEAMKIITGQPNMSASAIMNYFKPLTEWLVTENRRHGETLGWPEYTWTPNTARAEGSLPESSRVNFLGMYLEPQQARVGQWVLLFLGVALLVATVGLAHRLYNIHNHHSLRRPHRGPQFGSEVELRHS
Experimental: The experiment was carried out simultaneously with the above one and under the same conditions.
The basal pressure value for each rat was recorded, then doses of 0.1 μg/Kg of body weight of angiotensin-I were injected through the jugular catheter. […] From these values and the basal ones the pressure increase induced by angiotensin-I in each rat was calculated.
The percentages of inhibition of the pressure increase induced by angiotensin-I by different doses of test compounds were easily calculated and for each dose a single value, averaged on the three animals of the group was considered. By plotting the concentrations of test compound on a logarithmic scale versus the percent inhibitory effects, a linear correlation was established which allowed the calculation of the ED50, i.e. the dose of test compound which inhibits by 50% the pressure increase induced by angiotensin-I.

| IC50 [1] [nM] | ED50 ([2]; rat, iv, 0.25 h, read-out: ED50 (dose which inhibits by 50% the pressure increase induced by angiotensin-I)) [mg/kg] | ED50 (dose which inhibits by 50% the pressure increase induced by angiotensin-I) ([2]; intravenous, 15 min) [mg/kg] | Structure (SMILES) |
| --- | --- | --- | --- |
| 662 | – | – | O=C(SC1CCCC1C(=O)N1CCC[C@H]1C(=O)O)c1ccccc1 (single isomer, unassigned) [Example 5B, 1-[(2-benzoylthiocyclopentyl)carbonyl]-L-proline] |
| 863 | – | – | O=C(O)[C@@H]1CCCN1C(=O)C1CCCC1S (single isomer, unassigned) [Example 6A, 1-[(2-mercaptocyclopentyl)carbonyl]-L-proline] |
| 2340 | 2.3 | – | O=C(O)[C@@H]1CCCN1C(=O)C1CCCC1S (stereo partly drawn) [Example 2, 1-[(2-mercaptocyclopentyl)carbonyl]-L-proline] |
| – | – | 1.8 | O=C(O)[C@@H]1CCCN1C(=O)C1CCCC1S (stereo partly drawn) [Example 6B, 1-[(2-mercaptocyclopentyl)carbonyl]-L-proline] |
